The structures appear in SMILES notation.

This passage reports % of control and % of inhibition results from ChEMBL document CHEMBL5465560, “Selectivity Literature for EUbOPEN Chemogenomic Library” (2024).

For assay [1], the system named is Epidermal growth factor receptor (Homo sapiens), P00533 [UNDEFINED MUTATION]. The settings on record: at 10 µM.
In assay [2] the target is T1, Serine/threonine-protein kinase TAO2 (Homo sapiens) (UniProt Q9UL54).
T1 sequence (whole entry): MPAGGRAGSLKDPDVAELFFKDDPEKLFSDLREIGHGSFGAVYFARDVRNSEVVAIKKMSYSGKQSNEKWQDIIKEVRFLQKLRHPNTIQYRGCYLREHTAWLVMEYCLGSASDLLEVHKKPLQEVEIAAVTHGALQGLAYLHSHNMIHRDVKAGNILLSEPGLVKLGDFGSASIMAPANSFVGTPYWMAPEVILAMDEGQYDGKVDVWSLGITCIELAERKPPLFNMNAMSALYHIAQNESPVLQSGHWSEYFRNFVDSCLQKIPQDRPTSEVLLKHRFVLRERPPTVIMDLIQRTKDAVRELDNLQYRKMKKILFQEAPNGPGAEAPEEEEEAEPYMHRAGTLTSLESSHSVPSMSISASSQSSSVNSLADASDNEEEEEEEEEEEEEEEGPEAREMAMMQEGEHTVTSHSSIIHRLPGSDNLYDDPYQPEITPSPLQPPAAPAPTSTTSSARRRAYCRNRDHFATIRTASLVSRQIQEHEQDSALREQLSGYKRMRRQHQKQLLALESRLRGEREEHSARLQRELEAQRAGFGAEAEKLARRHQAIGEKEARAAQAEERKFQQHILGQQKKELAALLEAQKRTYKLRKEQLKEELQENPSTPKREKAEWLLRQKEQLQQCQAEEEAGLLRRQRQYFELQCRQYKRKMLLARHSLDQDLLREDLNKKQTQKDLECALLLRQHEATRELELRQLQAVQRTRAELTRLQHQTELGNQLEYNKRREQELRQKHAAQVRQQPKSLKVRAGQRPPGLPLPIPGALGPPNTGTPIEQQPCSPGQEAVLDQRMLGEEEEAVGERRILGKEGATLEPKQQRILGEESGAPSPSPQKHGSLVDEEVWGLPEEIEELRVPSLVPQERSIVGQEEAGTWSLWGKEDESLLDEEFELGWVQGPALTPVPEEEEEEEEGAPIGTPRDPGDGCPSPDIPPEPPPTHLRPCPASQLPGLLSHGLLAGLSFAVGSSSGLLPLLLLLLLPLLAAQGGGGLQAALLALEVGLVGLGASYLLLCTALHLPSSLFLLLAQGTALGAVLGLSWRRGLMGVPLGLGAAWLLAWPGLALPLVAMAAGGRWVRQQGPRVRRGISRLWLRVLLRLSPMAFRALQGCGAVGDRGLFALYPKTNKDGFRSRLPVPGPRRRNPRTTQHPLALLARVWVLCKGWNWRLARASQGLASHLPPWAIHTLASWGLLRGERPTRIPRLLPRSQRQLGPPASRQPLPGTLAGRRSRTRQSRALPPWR
The settings on record: at 10 µM.

For assay [3], the target named is Mitogen-activated protein kinase 14 (Homo sapiens, UniProt Q16539). Kind of assay: Selectivity interaction (ActivX KiNativ screen (kinase selectivity in THP-1 cell lysates)) EUB0000639a MAPK14. It counts as subcellular. The note with it: lysate, at 0.01 µM.
Mitogen-activated protein kinase 14, sequence (Q16539 whole entry, the tested form may be a part): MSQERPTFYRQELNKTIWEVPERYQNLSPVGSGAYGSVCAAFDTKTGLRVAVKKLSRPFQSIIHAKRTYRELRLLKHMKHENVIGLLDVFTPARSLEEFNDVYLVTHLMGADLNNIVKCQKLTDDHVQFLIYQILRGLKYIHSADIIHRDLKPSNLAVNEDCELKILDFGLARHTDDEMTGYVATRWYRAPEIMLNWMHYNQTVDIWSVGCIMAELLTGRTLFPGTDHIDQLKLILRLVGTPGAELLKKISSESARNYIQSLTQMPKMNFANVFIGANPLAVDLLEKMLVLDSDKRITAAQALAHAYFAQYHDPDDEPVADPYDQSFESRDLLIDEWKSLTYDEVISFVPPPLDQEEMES
Assay [4] concerns the target T2, Ankyrin repeat and protein kinase domain-containing protein 1 (Homo sapiens) (UniProt Q8NFD2).
T2 sequence (whole entry): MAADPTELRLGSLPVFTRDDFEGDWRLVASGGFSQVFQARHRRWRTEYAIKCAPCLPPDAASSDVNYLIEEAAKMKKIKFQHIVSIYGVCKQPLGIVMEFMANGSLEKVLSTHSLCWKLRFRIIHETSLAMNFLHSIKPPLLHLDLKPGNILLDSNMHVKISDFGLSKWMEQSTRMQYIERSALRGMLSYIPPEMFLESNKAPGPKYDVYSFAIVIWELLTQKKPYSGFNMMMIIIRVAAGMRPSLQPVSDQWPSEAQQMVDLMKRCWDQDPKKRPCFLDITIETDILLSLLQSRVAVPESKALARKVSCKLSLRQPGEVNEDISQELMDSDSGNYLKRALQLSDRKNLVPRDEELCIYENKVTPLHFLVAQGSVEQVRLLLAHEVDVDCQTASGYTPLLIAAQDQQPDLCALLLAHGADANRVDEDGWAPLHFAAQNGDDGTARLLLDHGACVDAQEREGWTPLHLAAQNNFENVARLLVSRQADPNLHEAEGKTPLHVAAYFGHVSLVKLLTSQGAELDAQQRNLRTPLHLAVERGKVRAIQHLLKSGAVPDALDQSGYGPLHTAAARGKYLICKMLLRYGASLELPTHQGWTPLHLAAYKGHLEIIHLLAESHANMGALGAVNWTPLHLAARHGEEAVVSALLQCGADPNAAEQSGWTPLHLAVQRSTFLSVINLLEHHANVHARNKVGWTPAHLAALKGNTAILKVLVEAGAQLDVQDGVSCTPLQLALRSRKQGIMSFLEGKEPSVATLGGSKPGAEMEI
Kind of assay: Selectivity interaction (KinomeScan (DiscoverX)) EUB0000655a ANKK1. The settings on record: at 10 µM.

Epidermal growth factor receptor (Homo sapiens), P00533 [UNDEFINED MUTATION], sequence (P00533 whole entry, looked up, change not shown): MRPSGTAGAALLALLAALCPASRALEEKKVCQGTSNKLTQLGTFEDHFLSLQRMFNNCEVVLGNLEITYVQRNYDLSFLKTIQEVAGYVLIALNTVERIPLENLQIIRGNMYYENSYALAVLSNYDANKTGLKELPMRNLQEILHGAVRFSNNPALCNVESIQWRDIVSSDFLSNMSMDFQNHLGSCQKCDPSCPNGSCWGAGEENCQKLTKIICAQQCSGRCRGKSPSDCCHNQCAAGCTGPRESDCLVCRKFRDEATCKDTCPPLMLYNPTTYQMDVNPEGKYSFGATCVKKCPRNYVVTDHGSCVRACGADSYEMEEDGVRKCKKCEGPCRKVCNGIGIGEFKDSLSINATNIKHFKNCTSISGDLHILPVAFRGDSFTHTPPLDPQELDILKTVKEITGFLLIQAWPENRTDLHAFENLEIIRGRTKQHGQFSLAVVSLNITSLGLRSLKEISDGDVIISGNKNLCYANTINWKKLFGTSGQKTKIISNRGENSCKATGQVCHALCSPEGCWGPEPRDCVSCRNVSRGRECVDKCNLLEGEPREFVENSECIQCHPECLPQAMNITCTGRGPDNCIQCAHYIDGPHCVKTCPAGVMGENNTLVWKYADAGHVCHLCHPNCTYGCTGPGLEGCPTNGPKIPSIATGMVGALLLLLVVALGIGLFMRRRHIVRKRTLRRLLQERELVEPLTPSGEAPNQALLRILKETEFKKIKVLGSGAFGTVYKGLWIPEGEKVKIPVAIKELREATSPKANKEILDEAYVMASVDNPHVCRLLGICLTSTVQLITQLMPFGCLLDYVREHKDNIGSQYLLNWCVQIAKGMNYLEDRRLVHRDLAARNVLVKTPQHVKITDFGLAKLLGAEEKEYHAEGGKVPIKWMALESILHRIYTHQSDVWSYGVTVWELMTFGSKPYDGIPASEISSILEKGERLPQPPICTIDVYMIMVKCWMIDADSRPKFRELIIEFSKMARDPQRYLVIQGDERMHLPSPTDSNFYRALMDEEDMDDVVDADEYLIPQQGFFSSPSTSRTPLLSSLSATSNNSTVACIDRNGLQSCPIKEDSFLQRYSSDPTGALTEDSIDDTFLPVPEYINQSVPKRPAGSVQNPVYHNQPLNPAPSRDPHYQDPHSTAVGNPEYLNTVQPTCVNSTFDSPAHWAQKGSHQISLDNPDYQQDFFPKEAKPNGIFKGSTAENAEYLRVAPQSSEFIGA

Consider `Cc1cc([C@@H](C)Nc2ccccc2C(=O)O)c2nc(N3CCOCC3)cc(=O)n2c1` [AZD-6482], for which the % of control in assay [1] came out at 100%; in assay [2], 94%.

Consider `CC[C@@H]1[C@H](F)C(=O)N[C@@H]1COc1nccc2cc(C(N)=O)c(OC)cc12` [ZIMLOVISERTIB], for which the % of inhibition in assay [3] was -4.1%.

With `CN(C)CCOc1ccc(-c2nc(-c3ccncc3)c(-c3ccc4c(c3)CC/C4=N\O)[nH]2)cc1`, in assay [4], the % of control was found to be 100%.
